ChEMBL document CHEMBL3774345, “Synthesis of new diarylamides with pyrimidinyl pyridine scaffold and evaluation of their anti-proliferative effect on cancer cell lines” (Bioorg Med Chem Lett, 2016)

Columns and labels:
M14 = assay: Cytotoxicity against human M14 cells assessed as cell growth at 10^-4 M after 24 hrs by SRB assay; assay type: functional; conditions: M14, 24 h, read-out: Activity
[1] = Cytotoxicity against human TK10 cells after 24 hrs by SRB assay; assay type: functional; conditions: TK-10, 24 h
[2] = Cytotoxicity against human BT549 cells assessed as cell growth at 10^-6 M after 24 hrs by SRB assay; assay type: functional; conditions: BT-549, 24 h, read-out: Activity
MDA-MB-435 [3] = assay: Cytotoxicity against human MDA-MB-435 cells assessed as cell growth at 10^-8 M after 24 hrs by SRB assay; assay type: functional; conditions: MDA-MB-435, 24 h, read-out: Activity
MCF7 = assay: Cytotoxicity against human MCF7 cells assessed as cell growth at 10^-7 M after 24 hrs by SRB assay; assay type: functional; conditions: MCF7, 24 h, read-out: Activity
[4] = Cytotoxicity against human UACC257 cells assessed as cell growth at 10^-6 M after 24 hrs by SRB assay; assay type: functional; conditions: UACC-257, 24 h, read-out: Activity
SK-MEL-2 [5] = assay: Cytotoxicity against human SK-MEL-2 cells assessed as cell growth at 10^-8 M after 24 hrs by SRB assay; assay type: functional; conditions: SK-MEL-2, 24 h, read-out: Activity
[6] = Cytotoxicity against human RPMI8226 cells assessed as cell growth at 10^-7 M after 24 hrs by SRB assay; assay type: functional; conditions: RPMI-8226, 24 h, read-out: Activity
NCI-H522 = assay: Cytotoxicity against human NCI-H522 cells assessed as cell growth at 10^-8 M after 24 hrs by SRB assay; assay type: functional; conditions: NCI-H522, 24 h, read-out: Activity
[7] = Cytotoxicity against human HL-60(TB) cells assessed as cell growth at 10^-4 M after 24 hrs by SRB assay; assay type: functional; conditions: HL-60, 24 h, read-out: Activity
[8] = Cytotoxicity against human DU145 cells assessed as cell growth at 10^-8 M after 24 hrs by SRB assay; assay type: functional; conditions: DU-145, 24 h, read-out: Activity
MDA-MB-435 [9] = assay: Cytotoxicity against human MDA-MB-435 cells assessed as cell growth at 10^-5 M after 24 hrs by SRB assay; assay type: functional; conditions: MDA-MB-435, 24 h, read-out: Activity
A498 = assay: Cytotoxicity against human A498 cells assessed as cell growth at 10^-4 M after 24 hrs by SRB assay; assay type: functional; conditions: A498, 24 h, read-out: Activity
SN12C = assay: Cytotoxicity against human SN12C cells assessed as cell growth at 10^-7 M after 24 hrs by SRB assay; assay type: functional; conditions: read-out: Activity
Malme-3M = assay: Cytotoxicity against human MALME-3M cells after 24 hrs by SRB assay; assay type: functional, cell-based
[10] = Cytotoxicity against human HOP92 cells assessed as cell growth at 10^-8 M after 24 hrs by SRB assay; assay type: functional; conditions: HOP-92, 24 h, read-out: Activity
[11] = Cytotoxicity against human HOP62 cells assessed as cell growth at 10^-7 M after 24 hrs by SRB assay; assay type: functional; conditions: HOP-62, 24 h, read-out: Activity
[12] = Cytotoxicity against human RPMI8226 cells assessed as cell growth at 10^-6 M after 24 hrs by SRB assay; assay type: functional; conditions: RPMI-8226, 24 h, read-out: Activity
SK-MEL-2 [13] = assay: Cytotoxicity against human SK-MEL-2 cells assessed as cell growth at 10^-4 M after 24 hrs by SRB assay; assay type: functional; conditions: SK-MEL-2, 24 h, read-out: Activity
[14] = Cytotoxicity against human SF295 cells assessed as cell growth at 10^-5 M after 24 hrs by SRB assay; assay type: functional; conditions: SF-295, 24 h, read-out: Activity
[15] = Cytotoxicity against human OVCAR4 cells assessed as cell growth at 10^-6 M after 24 hrs by SRB assay; assay type: functional; conditions: OVCAR-4, 24 h, read-out: Activity
KM12 = assay: Cytotoxicity against human KM12 cells assessed as cell growth at 10^-6 M after 24 hrs by SRB assay; assay type: functional; conditions: KM12, 24 h, read-out: Activity
[16] = Cytotoxicity against human HOP62 cells after 24 hrs by SRB assay; assay type: functional; conditions: HOP-62, 24 h
[17] = Cytotoxicity against human SF295 cells assessed as cell growth at 10^-7 M after 24 hrs by SRB assay; assay type: functional; conditions: SF-295, 24 h, read-out: Activity
[18] = Cytotoxicity against human HL-60(TB) cells assessed as cell growth at 10^-5 M after 24 hrs by SRB assay; assay type: functional; conditions: HL-60, 24 h, read-out: Activity
MDA-MB-231 = assay: Cytotoxicity against human MDA-MB-231 cells assessed as cell growth at 10^-6 M after 24 hrs by SRB assay; assay type: functional; conditions: MDA-MB-231, 24 h, read-out: Activity
786-0 = assay: Cytotoxicity against human 786-0 cells after 24 hrs by SRB assay; assay type: functional, cell-based; conditions: 786-0, 24 h
U-251 = assay: Cytotoxicity against human U251 cells assessed as cell growth at 10^-6 M after 24 hrs by SRB assay; assay type: functional; conditions: U-251, 24 h, read-out: Activity
[19] = Cytotoxicity against human OVCAR4 cells assessed as cell growth at 10^-8 M after 24 hrs by SRB assay; assay type: functional; conditions: OVCAR-4, 24 h, read-out: Activity
[20] = Cytotoxicity against human OVCAR5 cells assessed as cell growth at 10^-7 M after 24 hrs by SRB assay; assay type: functional; conditions: OVCAR-5, 24 h, read-out: Activity
[21] = Cytotoxicity against human UACC257 cells after 24 hrs by SRB assay; assay type: functional; conditions: UACC-257, 24 h
CCRF-CEM = assay: Cytotoxicity against human CCRF-CEM cells assessed as cell growth at 10^-5 M after 24 hrs by SRB assay; assay type: functional; conditions: read-out: Activity
NCI-H23 = assay: Cytotoxicity against human NCI-H23 cells after 24 hrs by SRB assay; assay type: functional; conditions: NCI-H23, 24 h
[22] = Cytotoxicity against human PC3 cells assessed as growth inhibition at 10 uM after 24 hrs by SRB assay; assay type: functional; conditions: PC-3, 24 h, read-out: GI
[23] = read-out: LC50 (the source's name)
[24] = read-out: pLC50 (the source's name) (converted)

Q: Which growth at 100 µM (M14) does the source give for O=C(Nc1cc(-c2cccnc2)nc(NCCCN2CCOCC2)n1)c1cc(Br)cc(C(F)(F)F)c1 here?
A: -71%

Q: What about the GI50 ([1]; read-out: GI50) of the same molecule?
A: 5.07 µM

Q: And the CC50 [1, 23]?
A: 43.3 µM

Q: What about the TGI ([1]; read-out: TGI) of the same molecule?
A: 18.1 µM

Q: What about the GI50 ([1]; read-out: pGI50 (converted)) of the same molecule?
A: 5.13 µM

Q: What about the CC50 [1, 24] of the same molecule?
A: 43.7 µM

Q: What about the TGI ([1]; read-out: pTGI (converted)) of the same molecule?
A: 18.2 µM

Q: And the growth at 1 µM [2]?
A: 83%

Q: And the growth at 0.01 µM (MDA-MB-435 [3])?
A: 96%

Q: And the growth at 0.1 µM (MCF7)?
A: 89%

Q: And the growth at 1 µM [4]?
A: 113%

Q: And the growth at 0.01 µM (SK-MEL-2 [5])?
A: 109%

Q: And the growth at 0.1 µM [6]?
A: 104%

Q: What about the growth at 0.01 µM (NCI-H522) of the same molecule?
A: 86%

Q: What about the growth at 100 µM [7] of the same molecule?
A: -51%

Q: What about the growth at 0.01 µM [8] of the same molecule?
A: 103%

Q: What about the growth at 10 µM (MDA-MB-435 [9]) of the same molecule?
A: -90%

Q: What about the growth at 100 µM (A498) of the same molecule?
A: -91%

Q: And the growth at 0.1 µM (SN12C)?
A: 98%

Q: And the IC50 (Malme-3M)?
A: 1.76 µM

Q: And the GI50 (Malme-3M; read-out: GI50)?
A: 1.76 µM

Q: And the CC50 (Malme-3M; [23])?
A: 7.28 µM

Q: What about the TGI (Malme-3M; read-out: TGI) of the same molecule?
A: 3.58 µM

Q: And the GI50 (Malme-3M; read-out: pGI50 (converted))?
A: 1.78 µM

Q: And the CC50 (Malme-3M; [24])?
A: 7.24 µM

Q: What about the TGI (Malme-3M; read-out: pTGI (converted)) of the same molecule?
A: 3.55 µM

Q: What about the growth at 0.01 µM [10] of the same molecule?
A: 80%

Q: What about the growth at 0.1 µM [11] of the same molecule?
A: 85%

Q: And the growth at 1 µM [12]?
A: 101%

Q: What about the growth at 100 µM (SK-MEL-2 [13]) of the same molecule?
A: -89%

Q: And the growth at 10 µM [14]?
A: -66%

Q: And the growth at 1 µM [15]?
A: 84%

Q: And the growth at 1 µM (KM12)?
A: 96%

Q: What about the GI50 ([16]; read-out: GI50) of the same molecule?
A: 2.71 µM

Q: And the CC50 [16, 23]?
A: 32.8 µM

Q: And the TGI ([16]; read-out: TGI)?
A: 9.98 µM

Q: What about the GI50 ([16]; read-out: pGI50 (converted)) of the same molecule?
A: 2.69 µM

Q: What about the CC50 [16, 24] of the same molecule?
A: 33.1 µM

Q: And the TGI ([16]; read-out: pTGI (converted))?
A: 10 µM

Q: What about the growth at 0.1 µM [17] of the same molecule?
A: 91%

Q: And the growth at 10 µM [18]?
A: -27%

Q: What about the growth at 1 µM (MDA-MB-231) of the same molecule?
A: 87%

Q: What about the IC50 (786-0) of the same molecule?
A: 1.55 µM

Q: What about the GI50 (786-0; read-out: GI50) of the same molecule?
A: 1.55 µM

Q: And the CC50 (786-0; [23])?
A: 6.47 µM

Q: And the TGI (786-0; read-out: TGI)?
A: 3.17 µM

Q: What about the GI50 (786-0; read-out: pGI50 (converted)) of the same molecule?
A: 1.55 µM

Q: And the CC50 (786-0; [24])?
A: 6.46 µM

Q: What about the TGI (786-0; read-out: pTGI (converted)) of the same molecule?
A: 3.16 µM

Q: What about the growth at 1 µM (U-251) of the same molecule?
A: 98%

Q: What about the growth at 0.01 µM [19] of the same molecule?
A: 95%

Q: What about the growth at 0.1 µM [20] of the same molecule?
A: 92%

Q: And the GI50 ([21]; read-out: GI50)?
A: 2.1 µM

Q: And the CC50 [21, 23]?
A: 6.8 µM

Q: What about the TGI ([21]; read-out: TGI) of the same molecule?
A: 3.78 µM

Q: And the GI50 ([21]; read-out: pGI50 (converted))?
A: 2.09 µM

Q: And the CC50 [21, 24]?
A: 6.76 µM

Q: And the TGI ([21]; read-out: pTGI (converted))?
A: 3.8 µM

Q: What about the growth at 10 µM (CCRF-CEM) of the same molecule?
A: 6%

Q: And the GI50 (NCI-H23; read-out: GI50)?
A: 3.55 µM

Q: And the CC50 (NCI-H23; [23])?
A: 46.1 µM

Q: What about the TGI (NCI-H23; read-out: TGI) of the same molecule?
A: 15 µM

Q: What about the GI50 (NCI-H23; read-out: pGI50 (converted)) of the same molecule?
A: 3.55 µM

Q: And the CC50 (NCI-H23; [24])?
A: 45.7 µM

Q: And the TGI (NCI-H23; read-out: pTGI (converted))?
A: 15.1 µM

Q: For COCCCNc1nc(NC(=O)c2cc(Br)cc(C(F)(F)F)c2)cc(-c2cccnc2)n1, which inhibition of growth at 10 µM [22] is on record?
A: 29.4%
